According to patent US8242118B2, “Arylsulfonamide derivatives for use as CCR3 antagonists in the treatment of inflammatory and immunological disorders” (Axikin Pharmaceuticals Inc., priority 2001, dated 2012):

Legend:
Human CCR3 = molecular target: T1, Human CCR3 (Homo sapiens, UniProt P51677); assay: Calcium mobilization assay, eotaxin-stimulated; type: cell-based; settings: human CCR3-transformed K562 cells, 10 nM eotaxin; compounds of about 40 to 90% purity; read-out: Activity grade Ca2+ (IC50 class)
T1 construct: The cloned CCR3 cDNA was constructed with pcDNA3 vector and transfected into a IC562 cell line; expressed in transfected cells
T1 sequence (P51677 1-355): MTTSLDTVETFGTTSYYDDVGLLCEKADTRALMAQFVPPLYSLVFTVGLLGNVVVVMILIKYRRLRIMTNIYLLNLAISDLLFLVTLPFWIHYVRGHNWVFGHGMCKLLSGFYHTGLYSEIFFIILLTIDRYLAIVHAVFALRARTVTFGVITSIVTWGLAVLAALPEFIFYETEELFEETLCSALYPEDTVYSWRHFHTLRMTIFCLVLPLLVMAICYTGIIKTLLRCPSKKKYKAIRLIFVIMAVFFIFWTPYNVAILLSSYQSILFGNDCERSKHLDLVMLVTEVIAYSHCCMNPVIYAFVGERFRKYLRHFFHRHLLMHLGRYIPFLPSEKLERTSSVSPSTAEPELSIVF
Protocol: • Human CCR3-transformed K562 cells were used. The cloned CCR3 cDNA was constructed with pcDNA3 vector and transfected into a IC562 cell line. The human CCR3-transformed K562 cells were maintained in RPMI-1640 (Cat.#22400-089, Life Technologies) supplemented with 10% FCS (Cat.#A-1115-L, Hyclone), 55 μM 2-mercaptoethanol (Cat.#21985-023, Life Technologies), 1 mM sodium pyruvate (Cat.#11360-070, Life Technologies), 100 units/ml of penicillin G and 100 μg/ml of streptomycin (Cat.#15140-122, Life Technologies), and 0.4 mg/ml of Geneticin (Cat.#10131-035, Life Technologies)(hereinafter called “culture medium”). Before the receptor binding assay, cells were pretreated with 5 mM sodium butyrate (Cat.#193-01522, Wako)-containing the culture medium (2×10^5 cells/ml) for 20-24 hours to increase the expression of CCR3. (2) Receptor Binding Assay (RBA) • Butyrate-pretreated cells, suspended in binding buffer (25 mM HEPES pH 7.6, 1 mM CaCl2, 5 mM MgCl2, 0.5% BSA, 0.1% NaN3) at a cell density of 2×10^6 cells/ml, were added into 60 μl/well in the 96-well round bottom polypropylene plate (Cat.#3365, Costar). Compounds, diluted with the binding buffer (4-times higher concentration of the final concentration), were added into 30 μl/well in the polypropylene plate. [^125I]-labeled human eotaxin (Cat.#IM290, Amersham Pharmacia Biotech), diluted with the binding buffer at the concentration of 0.4 nM (final concentration; 0.1 nM), was added into 30 μl/well in the polypropylene plate. Total 120 μl/well of binding reaction mixture (60 μl/well of cell suspension, 30 μl/well of compound solution, and 30 μl/well of [^125I]-labeled eotaxin) were incubated in the polypropylene plate for 1 hour at room temperature after the incubation, 100 μl/well of the reaction mixture was transferred to a filtration plate (Cat.#MAFB-N0B, Millipore), and washed with the washing buffer (25 mM HEPES pH 7.6, 1 mM CaCl2, 5 mM MgCl2, 0.5% BSA, 0.1% NaN3, 0.5 M NaCl) twice. The 96-well filtration plate was pretreated with 100 μl/well of 0.5% polyethylenimine (Cat.#P-3143, Sigma) for 2-4 hours at room temperature and washed with the washing buffer twice before use. The non-specific binding was determined by parallel incubation in the presence of 500 nM of non-labeled eotaxin (Cat.#23209, Genzyme Techne). The radioactivities remained on the filter were measured by liquid scintillation counter (TopCount™, Packard) after an addition of 45 μl/well of scintillant (Microscint20, Cat.#6013621, Packard). The inhibition percent at each concentration of compound was calculated, and IC50 values were determined from the inhibition curve. [Determination of IC50 Values of Compounds in Calcium Mobilization Assay] (IC50 Ca2+) (1) Cell • Human CCR3-transformed K562 cells were used. The human CCR3-transformed K562 cells were maintained in RPMI-1640 supplemented with 10% FCS, 55 μM 2-mercaptoethanol (Cat.#21985-023, Life Technologies), 1 mM sodium pyruvate, 100 units/ml of penicillin G and 100 μg/ml of streptomycin and 0.4 mg/ml of Geneticin. Before the calcium mobilization assay, cells were pretreated with 5 mM sodium butyrate-containing the culture medium (2×10^5 cells/ml) for 20-24 hours to increase the expression of CCR3. (2) Calcium Mobilization Assay • Butyrate-pretreated cells were loaded with Fluo-3AM (Cat.#F-1242, Molecular Probes) in loading buffer (Hanks' solution Cat.#05906 Nissui, 20 mM HEPES pH 7.6, 0.1% BSA, 1 mM probenecid Cat.#P-8761 Sigma, 1 μM Fluo-3AM, 0.01% pluronic F-127 Cat.#P-6866 Molecular Probes) at a cell density of 1×10^7 cells/ml. Then, cells were washed with calcium assay buffer (Hanks' solution Cat.#05906 Nissui, 20 mM HEPES pH 7.6, 0.1% BSA, 1 mM Probenecid Cat.#P-8761 Sigma). The cell suspension (3.3×10^6 cells/ml) was added into 60 μl/well in the 96-well clear bottom black plate (Cat.#3904, Costar). Compounds, diluted (5-times concentration of the final concentration) with the calcium assay buffer, were added into 20 μl/well in the plate 10 minutes before assay. […]

melting point [°C]	IC50 (Human CCR3) [nM]	SMILES
247 to 250	< 1000	Cl.N[C@@H]1CCN(S(=O)(=O)c2cc([N+](=O)[O-])ccc2Oc2cc(Cl)cc(Cl)c2)C1 [Example 1-99]
147 to 148	< 1000	O=[N+]([O-])c1ccc(Sc2cc(Cl)cc(Cl)c2)c(S(=O)(=O)N2CCN(CC3CCCO3)CC2)c1 (stereo not shown) [Example 2-2]
189	< 1000	NCCNS(=O)(=O)c1cc([N+](=O)[O-])ccc1Sc1cc(Cl)cc(Cl)c1 [Example 2-5]
156 to 158	< 1000	CCOC(=O)CCN1CCN(S(=O)(=O)c2cc([N+](=O)[O-])ccc2Sc2cc(Cl)cc(Cl)c2)CC1 [Example 2-6]
147 to 149	< 1000	NCC1CCN(S(=O)(=O)c2cc([N+](=O)[O-])ccc2Sc2cc(Cl)cc(Cl)c2)CC1 [Example 2-7]
205 to 207	< 1000	Cl.O=[N+]([O-])c1ccc(Sc2cc(Cl)cc(Cl)c2)c(S(=O)(=O)NCC2CCNCC2)c1 [Example 2-8]
131 to 133	< 1000	COCCCN1CCN(S(=O)(=O)c2cc([N+](=O)[O-])ccc2Sc2cc(Cl)cc(Cl)c2)CC1 [Example 2-9]
209 to 211	< 1000	O=C(O)CCN1CCN(S(=O)(=O)c2cc([N+](=O)[O-])ccc2Sc2cc(Cl)cc(Cl)c2)CC1 [Example 2-10]
274	1000 to 10000	Cc1cc(C)c(Sc2ccc([N+](=O)[O-])cc2S(=O)(=O)N2CCNCC2)c(C)c1.Cl [Example 2-15]
229 to 231	< 1000	Cc1cccc(Sc2ccc([N+](=O)[O-])cc2S(=O)(=O)N2CCNCC2)c1.Cl [Example 2-16]
235 to 237	< 1000	Cl.O=[N+]([O-])c1ccc(Sc2cccc(Cl)c2)c(S(=O)(=O)N2CCNCC2)c1 [Example 2-17]
262 to 264	< 1000	Cl.O=[N+]([O-])c1ccc(Sc2cc(Cl)cc(Cl)c2)c(S(=O)(=O)N2CCNCC2)c1 [Example 2-18]
236 to 238	< 1000	Cl.O=[N+]([O-])c1ccc(Sc2cccc(F)c2)c(S(=O)(=O)N2CCNCC2)c1 [Example 2-19]
230 to 231	< 1000	Cl.O=[N+]([O-])c1ccc(Sc2cc(C(F)(F)F)cc(C(F)(F)F)c2)c(S(=O)(=O)N2CCNCC2)c1 [Example 2-20]
273	1000 to 10000	Cl.O=[N+]([O-])c1ccc(Sc2ccc3ccccc3c2)c(S(=O)(=O)N2CCNCC2)c1 [Example 2-21]
143 to 144	< 1000	Cc1cc(C)cc(Sc2ccc([N+](=O)[O-])cc2S(=O)(=O)N2CCN(CC3CCCO3)CC2)c1 (stereo not shown) [Example 4-28]
98 to 99	< 1000	CCN(CC)CCN1CCN(S(=O)(=O)c2cc([N+](=O)[O-])ccc2Oc2cc(Cl)cc(Cl)c2)CC1 [Example 4-30]
138 to 140	< 1000	CN(C)CCN1CCN(S(=O)(=O)c2cc([N+](=O)[O-])ccc2Oc2cc(Cl)cc(Cl)c2)CC1 [Example 4-31]
167 to 169	< 1000	CN1CCC(N2CCN(S(=O)(=O)c3cc([N+](=O)[O-])ccc3Oc3cc(Cl)cc(Cl)c3)CC2)CC1 [Example 4-32]
134	< 1000	CN(C)CC(C)(C)CNS(=O)(=O)c1cc([N+](=O)[O-])ccc1Oc1cc(Cl)cc(Cl)c1 [Example 4-35]
160 to 162	< 1000	CCOC(=O)CCN1CCN(S(=O)(=O)c2cc([N+](=O)[O-])ccc2Oc2cc(Cl)cc(Cl)c2)CC1 [Example 4-37]
148	< 1000	Cc1cc(C)cc(Oc2cc(C)c(Cl)cc2S(=O)(=O)N2CCNCC2)c1.Cl [Example 5-8]
144 to 145	< 1000	N#Cc1ccc(Oc2cc(Cl)cc(Cl)c2)c(S(=O)(=O)N2CCC[C@H]2CN2CCCC2)c1 [Example 13-3]
104	< 1000	CN(c1cccnc1)S(=O)(=O)c1cc(C#N)ccc1Oc1cc(Cl)cc(Cl)c1.Cl [Example 13-10]
124	< 1000	CSCCCN1CCN(S(=O)(=O)c2cc(C#N)ccc2Sc2cc(Cl)cc(Cl)c2)CC1 [Example 17-2]
144 to 145	< 1000	CN(C)CC(C)(C)CN(C)S(=O)(=O)c1cc([N+](=O)[O-])ccc1Sc1cc(Cl)cc(Cl)c1 [Example 26-3]
